Values after ≈ are worked out from the molar mass of the structure shown.
What was measured:
[1] = system: Candida albicans A9540; experiment: In vitro antifungal activity (MIC), agar dilution on yeast morphology agar; assay type: cell-based; conditions: YMA, 0.06M phosphate (pH 7.0), 28°C, 40 hours, read-out: MIC Ca-4
Method: (§1) The in vitro antifungal activity (MIC) of the compounds of the invention was determined on yeast morphology agar (YMA, Difco Laboratories, USA), buffered with 0.06M phosphate (pH 7.0). Nine parts of molten agar were combined with one part of antibiotic dilution in petri dishes. A 5-µl suspension containing 2x10⁶ cells/ml was spotted on the surface of the agar plates. The plates were incubated at 28°C and MICs were recorded after 40 hours of the incubation. All of the 11-hydroxy derivatives of Formula I-I are active against a wide range of fungi.

[2] = system: Cryptococcus neoformans IAM4514; experiment: as above; assay type: cell-based; conditions: YMA, 0.06M phosphate (pH 7.0), 28°C, 40 hours, read-out: MIC Cn-2
Method: as §1

[3] = system: Candida tropicalis IFO10241; experiment: as above; assay type: cell-based; conditions: YMA, 0.06M phosphate (pH 7.0), 28°C, 40 hours, read-out: MIC Ct-12
Method: as §1

[4] = system: Strain AA 3798; experiment: Antibiotic susceptibility of the producing strain, antibiotic disks; assay type: cell-based, unidentified actinomycete; conditions: yeast-glucose-malt agar, 37°C, 4 days
Method: Antibiotic susceptibility of strain AA 3798 was examined using antibiotic disks (Tridisk, Eiken Chemical Co., Ltd). The disks were placed onto the surface of yeast-glucose-malt agar (yeast extract 0.1%, glucose 1%, malt extract 0.1%, CaCl₂·2H₂O 0.05%, and agar 1.5%) which had been seeded by strain AA 3798 (4% inoculum), and the plates were then incubated at 37°C for 4 days.

MIC [1] [µg/mL] | MIC [2] [µg/mL] | MIC [3] [µg/mL] | Molecule | further results
6.3 (≈ 7.62 µM) | 3.1 (≈ 3.75 µM) | 25 (≈ 30.2 µM) | CNC1C(C)OC(OC2c3cc(C)c(C(=O)NC(C)C(=O)O)c(O)c3-c3c(cc4c(c3O)C(=O)c3cc(O)cc(O)c3C4=O)C2O)C(O)C1OC1OCC(O)C(O)C1O (stereo not drawn) [Compound IA, 11-O-Demethylpradimicin A] | 
6.3 (≈ 7.75 µM) | 1.6 (≈ 1.97 µM) | 12.5 (≈ 15.4 µM) | Cc1cc2c(c(O)c1C(=O)NC(C)C(=O)O)-c1c(cc3c(c1O)C(=O)c1cc(O)cc(O)c1C3=O)C(O)C2OC1OC(C)C(N)C(OC2OCC(O)C(O)C2O)C1O (stereo not drawn) [IC, 11-O-Demethylpradimicin C] | 
6.3 (≈ 7.48 µM) | 3.1 (≈ 3.68 µM) | 12.5 (≈ 14.8 µM) | CNC1C(C)OC(OC2c3cc(C)c(C(=O)NC(CO)C(=O)O)c(O)c3-c3c(cc4c(c3O)C(=O)c3cc(O)cc(O)c3C4=O)C2O)C(O)C1OC1OCC(O)C(O)C1O (stereo not drawn) [ID, 11-O-Demethylpradimicin FA-1] | 
6.3 (≈ 7.35 µM) | 6.3 (≈ 7.35 µM) | 25 (≈ 29.2 µM) | Cc1cc2c(c(O)c1C(=O)NC(CO)C(=O)O)-c1c(cc3c(c1O)C(=O)c1cc(O)cc(O)c1C3=O)C(O)C2OC1OC(C)C(N(C)C)C(OC2OCC(O)C(O)C2O)C1O (stereo not drawn) [IE, 11-O-Demethyl-BMS-181182] | 
6.3 (≈ 7.59 µM) | 12.5 (≈ 15.1 µM) | 12.5 (≈ 15.1 µM) | Cc1cc2c(c(O)c1C(=O)NC(CO)C(=O)O)-c1c(cc3c(c1O)C(=O)c1cc(O)cc(O)c1C3=O)C(O)C2OC1OC(C)C(O)C(OC2OCC(O)C(O)C2O)C1O (stereo not drawn) [IF, 11-O-Demethyl-BMS-181184] | 
3.1 (≈ 3.75 µM) | 1.6 (≈ 1.93 µM) | 12.5 (≈ 15.1 µM) | CCOc1cc(O)c2c(c1)C(=O)c1c(cc3c(c1O)-c1c(cc(C)c(C(=O)NCC(=O)O)c1O)[C@H](O[C@@H]1O[C@H](C)[C@H](O)[C@H](O[C@@H]4OC[C@@H](O)[C@H](O)[C@H]4O)[C@H]1O)[C@H]3O)C2=O [IIA, 11-O-Dexylosyl-11-O-ethylpradimicin T1] | 
3.1 (≈ 3.67 µM) | 1.6 (≈ 1.89 µM) | 6.3 (≈ 7.45 µM) | Cc1cc2c(c(O)c1C(=O)NCC(=O)O)-c1c(cc3c(c1O)C(=O)c1cc(OCCF)cc(O)c1C3=O)[C@H](O)[C@H]2O[C@@H]1O[C@H](C)[C@H](O)[C@H](O[C@@H]2OC[C@@H](O)[C@H](O)[C@H]2O)[C@H]1O [IIB, 11-O-Dexylosyl-11-O-(2-fluoroethyl)pradimicin T1] | 
6.3 (≈ 7.5 µM) | 3.1 (≈ 3.69 µM) | 12.5 (≈ 14.9 µM) | C=CCOc1cc(O)c2c(c1)C(=O)c1c(cc3c(c1O)-c1c(cc(C)c(C(=O)NCC(=O)O)c1O)[C@H](O[C@@H]1O[C@H](C)[C@H](O)[C@H](O[C@@H]4OC[C@@H](O)[C@H](O)[C@H]4O)[C@H]1O)[C@H]3O)C2=O [IIC, 11-O-Allyl-11-O-dexylosylpradimicin T1] | 
> 100 | 12.5 (≈ 14 µM) | > 100 | Cc1cc2c(c(O)c1C(=O)NCC(=O)O)-c1c(cc3c(c1O)C(=O)c1cc(OCc4ccccc4)cc(O)c1C3=O)[C@H](O)[C@H]2O[C@@H]1O[C@H](C)[C@H](O)[C@H](O[C@@H]2OC[C@@H](O)[C@H](O)[C@H]2O)[C@H]1O [IID, 11-O-Benzyl-11-O-dexylosylpradimicin T1] | 
6.3 (≈ 7.77 µM) | 1.6 (≈ 1.97 µM) | 12.5 (≈ 15.4 µM) | CNC1C(C)OC(OC2c3cc(C)c(C(=O)NC(C)C(=O)O)c(O)c3-c3c(cc4c(c3O)C(=O)c3cccc(O)c3C4=O)C2O)C(O)C1OC1OCC(O)C(O)C1O (stereo not drawn) [IIG, 11-Demethoxypradimicin A] | 
6.3 (≈ 8.04 µM) | 6.3 (≈ 8.04 µM) | 12.5 (≈ 16 µM) | Cc1cc2c(c(O)c1C(=O)NCC(=O)O)-c1c(cc3c(c1O)C(=O)c1cccc(O)c1C3=O)[C@H](O)[C@H]2O[C@@H]1O[C@H](C)[C@H](O)[C@H](O[C@@H]2OC[C@@H](O)[C@H](O)[C@H]2O)[C@H]1O [III, 11-Dexylosyloxypradimicin T1] | 
12.5 (≈ 15.1 µM) | 50 (≈ 60.5 µM) | > 100 | Cc1cc2c(c(O)c1C(=O)NCC(=O)O)-c1c(cc3c(c1O)C(=O)c1cc(N(C)C)cc(O)c1C3=O)[C@H](O)[C@H]2O[C@@H]1O[C@H](C)[C@H](O)[C@H](O[C@@H]2OC[C@@H](O)[C@H](O)[C@H]2O)[C@H]1O [IIJ, 11-Dexylosyloxy-11-dimethylaminopradimicin T1] | 
12.5 (≈ 15.1 µM) | 6.3 (≈ 7.62 µM) | 25 (≈ 30.2 µM) | Cc1cc2c(c(O)c1C(=O)NCC(=O)O)-c1c(cc3c(c1O)C(=O)c1cc(C(N)=O)cc(O)c1C3=O)[C@H](O)[C@H]2O[C@@H]1O[C@H](C)[C@H](O)[C@H](O[C@@H]2OC[C@@H](O)[C@H](O)[C@H]2O)[C@H]1O [IIK, 11-Carbamoyl-11-dexylosyloxy pradimicin T1] | 
12.5 (≈ 15.5 µM) | 6.3 (≈ 7.79 µM) | 25 (≈ 30.9 µM) | Cc1cc2c(c(O)c1C(=O)NCC(=O)O)-c1c(cc3c(c1O)C(=O)c1cc(C#N)cc(O)c1C3=O)[C@H](O)[C@H]2O[C@@H]1O[C@H](C)[C@H](O)[C@H](O[C@@H]2OC[C@@H](O)[C@H](O)[C@H]2O)[C@H]1O [IIL, 11-Cyano-11-dexylosyloxy pradimicin T1] | 
6.3 (≈ 7.49 µM) | 1.6 (≈ 1.9 µM) | 12.5 (≈ 14.9 µM) | CN[C@@H]1[C@H](O[C@@H]2OC[C@@H](O)[C@H](O)[C@H]2O)[C@@H](O)[C@H](O[C@H]2c3cc(C)c(C(=O)N[C@H](C)C(=O)O)c(O)c3-c3c(cc4c(c3O)C(=O)c3cc(OC)cc(O)c3C4=O)[C@@H]2O)O[C@@H]1C [Pradimicin A, reference compound] | 
 |  |  | CC1(C)S[C@@H]2[C@H](NC(=O)[C@H](N)c3ccccc3)C(=O)N2[C@H]1C(=O)O [ampicillin] | Antibiotic susceptibility of strain AA 3798 ([4]; disk 20 µg): resistance
 |  |  | CC1=C(C(=O)O)N2C(=O)[C@@H](NC(=O)[C@H](N)c3ccccc3)[C@H]2SC1 [cephalexin] | Antibiotic susceptibility of strain AA 3798 ([4]; disk 10 µg): resistance
 |  |  | O=C(N[C@H](CO)[C@H](O)c1ccc([N+](=O)[O-])cc1)C(Cl)Cl [chloramphenicol] | Antibiotic susceptibility of strain AA 3798 ([4]; disk 10 µg): susceptible
 |  |  | O=C(O)[C@H]1/C(=C/CO)O[C@@H]2CC(=O)N21 [clavulanic acid] | Antibiotic susceptibility of strain AA 3798 ([4]; disk 1 µg): susceptible
 |  |  | CC[C@H]1OC(=O)[C@H](C)[C@@H](O[C@H]2C[C@@](C)(OC)[C@@H](O)[C@H](C)O2)[C@H](C)[C@@H](O[C@@H]2O[C@H](C)C[C@H](N(C)C)[C@H]2O)[C@](C)(O)C[C@@H](C)C(=O)[C@H](C)[C@@H](O)[C@]1(C)O [erythromycin] | Antibiotic susceptibility of strain AA 3798 ([4]; disk 10 µg): resistance
 |  |  | C[C@@H]1O[C@@H]1P(=O)(O)O [fosfomycin] | Antibiotic susceptibility of strain AA 3798 ([4]; disk 50 µg): resistance
 |  |  | CO[C@@H]1[C@@H](O[C@@H]2O[C@H](C)[C@@H](O[C@H]3C[C@@](C)(O)[C@@H](OC(=O)CC(C)C)[C@H](C)O3)[C@H](N(C)C)[C@H]2O)[C@@H](CC=O)C[C@@H](C)[C@@H](O)/C=C/C=C/C[C@@H](C)OC(=O)C[C@H]1OC(C)=O [josamycin] | Antibiotic susceptibility of strain AA 3798 ([4]; disk 15 µg): resistance
 |  |  | CCC[C@@H]1C[C@@H](C(=O)N[C@@H]([C@H]2O[C@H](SC)[C@H](O)[C@@H](O)[C@H]2O)[C@@H](C)O)N(C)C1 [lincomycin] | Antibiotic susceptibility of strain AA 3798 ([4]; disk 15 µg): resistance
 |  |  | CCn1cc(C(=O)O)c(=O)c2ccc(C)nc21 [nalidixic acid] | Antibiotic susceptibility of strain AA 3798 ([4]; disk 15 µg): resistance
 |  |  | CCn1cc(C(=O)O)c(=O)c2cc(F)c(N3CCNCC3)cc21 [norfloxacin] | Antibiotic susceptibility of strain AA 3798 ([4]; disk 2 µg): susceptible
 |  |  | CC1(C)S[C@@H]2[C@H](NC(=O)[C@H](C(=O)O)c3ccsc3)C(=O)N2[C@H]1C(=O)O [ticarcillin] | Antibiotic susceptibility of strain AA 3798 ([4]; disk 2 µg): susceptible
 |  |  | NC[C@H]1O[C@H](O[C@H]2[C@H](O)[C@@H](O[C@H]3O[C@H](CO)[C@@H](O)[C@H](N)[C@H]3O)[C@H](N)C[C@@H]2N)[C@H](N)C[C@@H]1O [tobramycin] | Antibiotic susceptibility of strain AA 3798 ([4]; disk 10 µg): resistance
 |  |  | colistin | Antibiotic susceptibility of strain AA 3798 ([4]; disk 50 U): susceptible
 |  |  | gentamicin | Antibiotic susceptibility of strain AA 3798 ([4]; disk 5 µg): resistance
 |  |  | polymyxin B | Antibiotic susceptibility of strain AA 3798 ([4]; disk 300 U): resistance
